The record followed here is patent publication US8329706B2, “Oxazolidinone derivatives” (Actelion Pharmaceuticals Ltd., priority 2009, dated 2012).

One test addresses T1, human orexin-2 receptor (Homo sapiens, UniProt O43614).
T1 construct: expressed in transfected cells; host or cells: CHO cells (G418 selection)
T1 sequence (O43614 1-444): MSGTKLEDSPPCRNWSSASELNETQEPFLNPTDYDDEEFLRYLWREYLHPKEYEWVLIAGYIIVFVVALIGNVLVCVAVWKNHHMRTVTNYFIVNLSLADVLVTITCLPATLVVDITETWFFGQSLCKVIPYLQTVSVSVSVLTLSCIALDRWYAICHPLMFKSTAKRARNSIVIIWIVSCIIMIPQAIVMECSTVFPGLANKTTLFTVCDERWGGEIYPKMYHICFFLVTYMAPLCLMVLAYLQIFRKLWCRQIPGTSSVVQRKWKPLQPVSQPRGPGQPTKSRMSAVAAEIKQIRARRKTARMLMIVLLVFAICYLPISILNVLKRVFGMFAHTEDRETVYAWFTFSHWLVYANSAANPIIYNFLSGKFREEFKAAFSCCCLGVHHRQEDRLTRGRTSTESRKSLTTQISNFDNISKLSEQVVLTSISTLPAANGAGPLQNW
Put plainly: FLIPR intracellular calcium assay, orexin receptor antagonistic activity (OX2). Type of test: cell-based. The note with it: CHO cells expressing human orexin-2 receptor; agonist 3 nM orexin-A; normalized to on-plate reference; * geomean n = 5, *2 geomean n = 2. The protocol:
(§1) The orexin receptor antagonistic activity of the compounds of formula (I) is determined in accordance with the following experimental method.
(§2) Chinese hamster ovary (CHO) cells expressing the human orexin-1 receptor and the human orexin-2 receptor, respectively, are grown in culture medium (Ham F-12 with L-Glutamine) containing 300 μg/ml G418, 100 U/ml penicillin, 100 μg/ml streptomycin and 10% heat inactivated fetal calf serum (FCS). The cells are seeded at 20′000 cells/well into 384-well black clear bottom sterile plates (Greiner). The seeded plates are incubated overnight at 37° C. in 5% CO2.
(§3) Human orexin-A as an agonist is prepared as 1 mM stock solution in MeOH:water (1:1), diluted in HBSS containing 0.1% bovine serum albumin (BSA), NaHCO3: 0.375 g/l and 20 mM HEPES for use in the assay at a final concentration of 3 nM.
(§4) Antagonists are prepared as 10 mM stock solution in DMSO, then diluted in 384-well plates using DMSO followed by a transfer of the dilutions into in HBSS containing 0.1% bovine serum albumin (BSA), NaHCO3: 0.375 g/l and 20 mM HEPES. On the day of the assay, 50 μl of staining buffer (HBSS containing 1% FCS, 20 mM HEPES, NaHCO3: 0.375 g/l, 5 mM probenecid (Sigma) and 3 μM of the fluorescent calcium indicator fluo-4 AM (1 mM stock solution in DMSO, containing 10% pluronic) is added to each well. The 384-well cell-plates are incubated for 50 min at 37° C. in 5% CO2 followed by equilibration at rt for 30-120 min before measurement.
(§5) Within the Fluorescent Imaging Plate Reader (FLIPR Tetra, Molecular Devices), antagonists are added to the plate in a volume of 10 μl/well, incubated for 10 min and finally 10 μl/well of agonist is added. Fluorescence is measured for each well at 1 second intervals, and the height of each fluorescence peak is compared to the height of the fluorescence peak induced by 3 nM orexin-A with vehicle in place of antagonist. For each antagonist, the IC50 value (the concentration of compound needed to inhibit 50% of the agonistic response) is determined and normalized using the obtained IC50 value of a on-plate reference compound. Optimized conditions were achieved by adjustment of pipetting speed and cell splitting regime. The calculated IC50 values of the compounds may fluctuate depending on the daily cellular assay performance. Fluctuations of this kind are known to those skilled in the art.

The target of the next test is T2, human orexin-1 receptor (Homo sapiens, UniProt O43613).
T2 construct: expressed in transfected cells; host or cells: CHO cells (G418 selection)
T2 sequence (O43613 1-425): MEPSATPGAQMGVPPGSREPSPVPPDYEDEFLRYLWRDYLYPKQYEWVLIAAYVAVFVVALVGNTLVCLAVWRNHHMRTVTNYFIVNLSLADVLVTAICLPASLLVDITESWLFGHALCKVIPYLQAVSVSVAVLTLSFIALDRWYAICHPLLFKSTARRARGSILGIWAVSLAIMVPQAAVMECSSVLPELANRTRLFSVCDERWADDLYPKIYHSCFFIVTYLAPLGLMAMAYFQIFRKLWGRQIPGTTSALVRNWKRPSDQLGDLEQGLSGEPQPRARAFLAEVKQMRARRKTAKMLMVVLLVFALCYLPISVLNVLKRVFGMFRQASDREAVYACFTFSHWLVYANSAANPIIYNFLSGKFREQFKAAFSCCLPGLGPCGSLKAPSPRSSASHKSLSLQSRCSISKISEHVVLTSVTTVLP
Description: FLIPR intracellular calcium assay, orexin receptor antagonistic activity (OX1). The test is classed as cell-based. Particulars: CHO cells expressing human orexin-1 receptor; agonist 3 nM orexin-A; normalized to on-plate reference; * geomean n = 5, *2 geomean n = 2. As for the experimental part: as §1, §2, §3, §4, §5
Background: A change in cytosolic calcium serves as a functional read-out for many receptors and channels.

SMILES strings stand for the structures.

Regarding `COc1cccc(OC)c1C1OCC(=O)N1Cc1ccc(Cl)cc1Cl` (stereo not drawn) [Example 42, 3-(2,4-Dichloro-benzyl)-2-(2,6-dimethoxy-phenyl)-oxazolidin-4-one], the results for the IC50 at human orexin-2 receptor and on human orexin-1 receptor were 0.376 µM and 1.49 µM, respectively.
The like results for `COc1cccc(OC)c1C1OCC(=O)N1Cc1c(C)cccc1C` (stereo not drawn) [Example 44, 2-(2,6-Dimethoxy-phenyl)-3-(2,6-dimethyl-benzyl)-oxazolidin-4-one] were, in that order, 0.467 µM and 1.76 µM.
The like results for `CCOc1ccccc1C1OCC(=O)N1Cc1ccccc1Cl` (stereo not drawn) [Example 45, 3-(2-Chloro-benzyl)-2-(2-ethoxy-phenyl)-oxazolidin-4-one] were, in that order, 0.87 µM and 1.74 µM.
The like results for `CCOc1ccccc1C1OCC(=O)N1Cc1cc(Cl)ccc1Cl` (stereo not drawn) [Example 46, 3-(2,5-Dichloro-benzyl)-2-(2-ethoxy-phenyl)-oxazolidin-4-one] were, in that order, 1.52 µM and 0.788 µM.
In the case of `COc1cccc(OC)c1C1OCC(=O)N1Cc1ccc(Oc2ccccc2)cc1` (stereo not drawn) [Example 47, 2-(2,6-Dimethoxy-phenyl)-3-(4-phenoxy-benzyl)-oxazolidin-4-one], the IC50 on human orexin-2 receptor is 0.068 µM; on human orexin-1 receptor, 1.18 µM.
The like results for `COc1cccc(OC)c1C1OCC(=O)N1Cc1ccc(OC(F)(F)F)c(F)c1` (stereo not drawn) [Example 48, 2-(2,6-Dimethoxy-phenyl)-3-(3-fluoro-4-trifluoromethoxy-benzyl)-oxazolidin-4-one] were, in that order, 0.099 µM and 1.35 µM.
With `COc1cccc(OC)c1C1OCC(=O)N1Cc1ccc(OC(F)F)cc1` (stereo not drawn) [Example 49, 3-(4-Difluoromethoxy-benzyl)-2-(2,6-dimethoxy-phenyl)-oxazolidin-4-one], the IC50 at human orexin-2 receptor amounted to 0.113 µM; on human orexin-1 receptor it was 2.99 µM.
The like results for `COc1cccc(OC)c1C1OC(C)(C)C(=O)N1Cc1ccc(Oc2ccccc2)cc1` (stereo not drawn) [Example 50, 2-(2,6-Dimethoxy-phenyl)-5,5-dimethyl-3-(4-phenoxy-benzyl)-oxazolidin-4-one] were, in that order, 0.058 µM and 0.028 µM.
For `COc1cccc(OC)c1C1O[C@H](C)C(=O)N1Cc1ccc(Oc2ccccc2)cc1` (stereo partly drawn) [Example 51, 2-(2,6-Dimethoxy-phenyl)-(R)-5-methyl-3-(4-phenoxy-benzyl)-oxazolidin-4-one], the IC50 stood at 0.025 µM on human orexin-2 receptor and 0.22 µM on human orexin-1 receptor.
As for `COc1cccc(OC)c1C1O[C@H](C)C(=O)N1Cc1ccc(OC(F)F)cc1` (stereo partly drawn) [Example 52, 3-(4-Difluoromethoxy-benzyl)-2-(2,6-dimethoxy-phenyl)-(R)-5-methyl-oxazolidin-4-one], the results for the IC50 on human orexin-2 receptor and at human orexin-1 receptor were 0.041 µM and 0.726 µM, respectively.
Take `COc1cccc(OC)c1C1O[C@H](C)C(=O)N1Cc1ccc2ccccc2c1` (stereo partly drawn) [Example 53, 2-(2,6-Dimethoxy-phenyl)-(R)-5-methyl-3-naphthalen-2-ylmethyl-oxazolidin-4-one]: the half-inhibitory concentration (IC50) on human orexin-2 receptor came to 0.065 µM; at human orexin-1 receptor it was 0.047 µM.
The like results for `CCCOc1ccc(CN2C(=O)COC2c2c(OC)cccc2OC)cc1` (stereo not drawn) [Example 54, 2-(2,6-Dimethoxy-phenyl)-3-(4-propoxy-benzyl)-oxazolidin-4-one] were, in that order, 0.081 µM and 1.71 µM.
With `COc1cccc(OC)c1C1O[C@H](C)C(=O)N1Cc1ccc(OC(F)(F)F)c(F)c1` (stereo partly drawn) [Example 55, 2-(2,6-Dimethoxy-phenyl)-3-(3-fluoro-4-trifluoromethoxy-benzyl)-(R)-5-methyl-oxazolidin-4-one], the IC50 came to 0.108 µM on human orexin-2 receptor and 0.178 µM on human orexin-1 receptor.
The like results for `COc1cccc(OC)c1C1O[C@H](C)C(=O)N1Cc1ccc(OC(F)(F)F)c(Cl)c1` (stereo partly drawn) [Example 56, 3-(3-Chloro-4-trifluoromethoxy-benzyl)-2-(2,6-dimethoxy-phenyl)-(R)-5-methyl-oxazolidin-4-one] were, in that order, 0.111 µM and 0.164 µM.
The like results for `COc1cccc(OC)c1C1OC(C)(C)C(=O)N1Cc1ccc2ccccc2c1` (stereo not drawn) [Example 57, 2-(2,6-Dimethoxy-phenyl)-5,5-dimethyl-3-naphthalen-2-ylmethyl-oxazolidin-4-one] were, in that order, 0.151 µM and 0.005 µM.
On to `COc1cccc(OC)c1C1OC(C)(C)C(=O)N1Cc1ccc(OC(F)(F)F)c(Cl)c1` (stereo not drawn) [Example 58, 3-(3-Chloro-4-trifluoromethoxy-benzyl)-2-(2,6-dimethoxy-phenyl)-5,5-dimethyl-oxazolidin-4-one], for which the IC50 at human orexin-2 receptor worked out at 0.133 µM; on human orexin-1 receptor, 0.025 µM.
Regarding `COc1cccc(OC)c1C1O[C@@H](C)C(=O)N1Cc1ccc(Oc2ccccc2)cc1` (stereo partly drawn) [Example 59, 2-(2,6-Dimethoxy-phenyl)-(S)-5-methyl-3-(4-phenoxy-benzyl)-oxazolidin-4-one], the values for the IC50 at human orexin-2 receptor and on human orexin-1 receptor were 0.15 µM and 2.13 µM, respectively.
With `COc1cccc(OC)c1C1OCC(=O)N1Cc1ccc(OC(C)C)cc1` (stereo not drawn) [Example 60, 2-(2,6-Dimethoxy-phenyl)-3-(4-isopropoxy-benzyl)-oxazolidin-4-one], the IC50 was 0.159 µM on human orexin-2 receptor and 3.24 µM on human orexin-1 receptor.
The like results for `COc1cccc(OC)c1C1OC(C)(C)C(=O)N1Cc1ccc(OC(F)(F)F)cc1` (stereo not drawn) [Example 61, 2-(2,6-Dimethoxy-phenyl)-5,5-dimethyl-3-(4-trifluoromethoxy-benzyl)-oxazolidin-4-one] were, in that order, 0.16 µM and 0.029 µM.
The like results for `COc1cccc(OC)c1C1O[C@H](C)C(=O)N1Cc1nc2ccccc2s1` (stereo partly drawn) [Example 62, 3-Benzothiazol-2-ylmethyl-2-(2,6-dimethoxy-phenyl)-(R)-5-methyl-oxazolidin-4-one] were, in that order, 0.193 µM and 2.87 µM.
Consider `COc1cccc(OC)c1C1O[C@H](C)C(=O)N1Cc1ccc(OC(F)(F)F)cc1` (stereo partly drawn) [Example 63, 2-(2,6-Dimethoxy-phenyl)-(R)-5-methyl-3-(4-trifluoromethoxy-benzyl)-oxazolidin-4-one], for which the IC50 on human orexin-2 receptor came out at 0.216 µM; at human orexin-1 receptor, 0.26 µM.
The like results for `COc1cccc(OC)c1C1OC(C)(C)C(=O)N1Cc1nc2ccccc2s1` (stereo not drawn) [Example 64, 3-Benzothiazol-2-ylmethyl-2-(2,6-dimethoxy-phenyl)-5,5-dimethyl-oxazolidin-4-one] were, in that order, 0.222 µM and 0.411 µM.
For `COc1cccc(OC)c1C1OCC(=O)N1Cc1ccc(OCC2CC2)cc1` (stereo not drawn) [Example 65, 3-(4-Cyclopropylmethoxy-benzyl)-2-(2,6-dimethoxy-phenyl)-oxazolidin-4-one], the IC50 on human orexin-2 receptor was 0.243 µM; on human orexin-1 receptor, 6.32 µM.
The like results for `COc1cccc(OC)c1C1O[C@@H](C)C(=O)N1Cc1ccc2ccccc2c1` (stereo partly drawn) [Example 66, 2-(2,6-Dimethoxy-phenyl)-(S)-5-methyl-3-naphthalen-2-ylmethyl-oxazolidin-4-one] were, in that order, 0.266 µM and 0.421 µM.

In general, IC50 refers to the concentration that inhibits the measured activity by half.
